# According to patent publication US20160075682A1, “INHIBITORS OF NICOTINAMIDE PHOSPHORIBOSYLTRANSFERASE, COMPOSITIONS, PRODUCTS AND USES THEREOF” (UNIVERSITÀ DEGLI STUDI DEL PIEMONTE ORIENTALE "AMEDEO …, priority 2013, published 2016):
# Tests used:
# SH-SY5Y, HeLa = experiment: MTT cell proliferation assay and trypan blue count (cell viability); assay type: cell-based; conditions: cells treated for 48 and 72 hours; read-out: IC50 values (inhibition of cellular proliferation, MTT assay and trypan blue assay)
# Procedure: Cell based assays were used to evaluate the possible cytotoxic effects of some compounds. To measure cytotoxic effects two different methods were used, a MTT cell proliferation assay and trypan blue count.
# The Trypan blue assay is used to determine the number of viable cells present in a cell suspension. […] Briefly, 8×10^5 cells (SH-SY5Y, HeLa; obtained from ATCC, LGC standards, Sesto San Giovanni) were seeded in 24-well plates and treated for 48 and 72 hours. After the treatments, cells were stained with trypan blue and counted.
# To analyze cell viability was used the colorimetric 3-(4,5-dimethylthiazol-2-yl)-2,5-diphenyltetrazolium bromide (MTT) method. The assay is based on the cleavage of the yellow tetrazolium salt MTT to purple formazan crystals by metabolic active cells. Since reduction of MTT can only occur in metabolically active cells, the level of activity is a measure of the viability of cells and conversely the cytotoxic effects of various treatments. Briefly, 8×10^5 cells (SH-SY5Y, code number CRL-2266; and HeLa, code number CCL-2) were seeded in 24-well plates and treated for 48 and 72 hours. Compounds were dissolved in DMSO and were added to the cells to give a final DMSO concentration no greater than 0.5%. Cells were washed once in Locke buffer and 300 μl of MTT (250 μg/ml in Locke buffer) were added before returning the cells to the incubator for 1 h to allow the formation of the purple formazan crystals. After 1 h, 600 μl of isopropanol/0.1 M HCl were added to each well, and the absorbance was read at 570 nm in a plate reader (Victor3V, PerkinElmer Life Sciences). For some compounds a dose response curve and IC50 for the effects on cell viability and proliferation were calculated. Cell lines used were originally purchased from ATCC (LGC standards. Sesto San Giovanni).
# To evaluate the ability of each compound to inhibit cellular proliferation, cells were seeded in 24-well plates and treated for 48 and 72 hours. After the treatments the MTT assay and trypan blue assay were performed.
# NAMPT = target: T1, NAMPT (Homo sapiens, UniProt P43490); experiment: Direct inhibition of NAMPT enzymatic activity (Cyclex NAMPT colorimetric Assay Kit); assay type: biochemical; conditions: as assessed with a cycling assay
# T1 construct: endogenous in cells; host or cells: SH-SY5Y and HeLa
# T1 sequence (P43490 whole entry): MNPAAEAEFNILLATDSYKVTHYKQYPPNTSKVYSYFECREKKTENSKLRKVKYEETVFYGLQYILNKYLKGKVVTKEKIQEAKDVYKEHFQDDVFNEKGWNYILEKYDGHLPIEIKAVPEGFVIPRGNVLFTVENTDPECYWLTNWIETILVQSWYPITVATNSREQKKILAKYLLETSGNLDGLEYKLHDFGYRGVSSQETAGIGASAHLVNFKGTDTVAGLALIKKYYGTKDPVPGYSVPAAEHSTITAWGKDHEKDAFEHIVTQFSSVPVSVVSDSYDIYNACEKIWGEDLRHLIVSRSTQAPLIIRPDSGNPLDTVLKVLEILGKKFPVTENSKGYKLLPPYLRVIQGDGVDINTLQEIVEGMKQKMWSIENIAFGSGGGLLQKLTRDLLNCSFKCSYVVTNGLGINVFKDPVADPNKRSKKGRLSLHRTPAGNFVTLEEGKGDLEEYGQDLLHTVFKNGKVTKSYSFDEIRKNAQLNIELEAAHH
# Procedure: Determination of the direct activity of compounds on NAMPT was performed using a commercial kit, Cyclex NAMPT colorimetric Assay Kit.
Structure (SMILES),"IC50 (SH-SY5Y, HeLa) [nM]",inhibition of the enzymatic activity of NAMPT (NAMPT),melting point [°C]
"O=C(Nc1ccccc1-c1ccccc1)OCCCCCCn1cc(-c2cccnc2)nn1 [6-(4-(pyridin-3-yl)-1H-1,2,3-triazol-1-yl)hexyl[1,1′-biphenyl]-2-ylcarbamate]",< 300,able to inhibit,–
"O=S(=O)(NCCCCCCCn1cc(-c2cccnc2)nn1)c1ccccc1Br [2-bromo-N-(7-(4-(pyridin-3-yl)-1H-1,2,3-triazol-1-yl)heptyl)benzene sulfonamide]",< 300,–,–
"NC(=O)c1ccccc1-c1ccccc1C(=O)NCCCCCCCn1cc(-c2cccnc2)nn1 [N^2-(7-(4-(pyridin-3-yl)-1H-1,2,3-triazol-1-yl)heptyl)-[1,1′-biphenyl]-2,2′-dicarboxamide]",–,–,100 to 101
"O=C(NCCCCCCCCn1cc(-c2cccnc2)nn1)Nc1ccccc1-c1ccccc1 [1-([1,1′-biphenyl]-2-il)-3-(8-(4-(pyridin-3-yl)-1H-1,2,3-triazol-1-yl)octyl)urea]",< 300,–,90 to 95
"O=C(Nc1ccccc1-c1ccccc1)OCCc1ccc(Cn2cc(-c3cccnc3)nn2)cc1 [4-((4-(pyridin-3-yl)-1H-1,2,3-triazol-1-yl)methyl)phenethyl[1,1′-biphenyl]-2-ylcarbamate]",< 300,–,131 to 132
"O=C(NCCCCCCn1cc(-c2cccnc2)nn1)Nc1ccccc1-c1ccccc1 [1-([1,1′-biphenyl]-2-yl)-3-(6-(4-(pyridin-3-yl)-1H-1,2,3-triazol-1-yl)hexyl)urea]",< 300,able to inhibit,–
"O=S(=O)(NCCCCCCCn1cc(-c2cccnc2)nn1)c1ccccc1-c1ccccc1 [N-(7-(4-(pyridin-3-yl)-1H-1,2,3-triazol-1-yl)heptyl) biphenyl-2-sulfonamide]",< 300,–,–
"c1ccc(OCCCCCCCn2cc(-c3cccnc3)nn2)cc1 [3-(1-(7-phenoxyheptyl)-1H-1,2,3-triazol-4-yl)pyridine]",–,–,90.5 to 91
"c1ccc(OCCCCCCn2cc(-c3cccnc3)nn2)cc1 [3-(1-(6-phenoxyhexyl)-1H-1,2,3-triazol-4-yl)pyridine]",–,–,74 to 75
"O=S(=O)(NCCCCCCn1cc(-c2cccnc2)nn1)c1ccccc1-c1ccccc1 [N-(6-(4-(pyridin-3-yl)-1H-1,2,3-triazol-1-yl)hexyl) biphenyl-2-sulfonamide]",< 300,–,–
"c1ccc(-c2ccccc2CNCCCCCCn2cc(-c3cccnc3)nn2)cc1 [N-([1,1′-biphenyl]-2-ylmethyl)-6-(4-(pyridin-3-yl)-1H-1,2,3-triazol-1-yl)hexan-1-amine]",< 300,–,55 to 58
"Cc1ccccc1-c1ccccc1C(=O)NCCCCCCCn1cc(-c2cccnc2)nn1 [2′-methyl-N-(7-(4-(pyridin-3-yl)-1H-1,2,3-triazol-1-yl)heptyl)-[1,1′-biphenyl]-2-carboxamide]",< 300,able to inhibit,–
"c1ccc(-c2ccccc2CNCCCCCCCCn2cc(-c3cccnc3)nn2)cc1 [N-([1,1′-biphenyl]-2-ylmethyl)-8-(4-(pyridin-3-yl)-1H-1,2,3-triazol-1-yl)octan-1-amine]",< 300,–,–
"O=C(O)c1ccc(-c2ccccc2OCCCCCCn2cc(-c3cccnc3)nn2)cc1 [2′-((6-(4-(pyridin-3-yl)-1H-1,2,3-triazol-1-yl)hexyl)oxy)-[1,1′-biphenyl]-4-carboxylic acid]",< 300,–,–
"O=C(O)c1ccc(-c2ccccc2C(=O)NCCCCCCCn2cc(-c3cccnc3)nn2)cc1 [2′-((7-(4-(pyridin-3-yl)-1H-1,2,3-triazol-1-yl)heptyl)carbamoyl)-[1,1′-biphenyl]-4-carboxylic acid]",< 300,–,–
"O=S(=O)(NCCc1ccc(Cn2cc(-c3cccnc3)nn2)cc1)c1ccccc1Br [2-bromo-N-(4-((4-(pyridin-3-yl)-1H-1,2,3-triazol-1-yl)methyl)phenethyl)benzenesulfonamide]",< 300,–,–
"c1ccc(-c2cn(CCCCCCCn3cc(-c4cccnc4)nn3)nn2)cc1 [3-(1-(7-(4-phenyl-1H-1,2,3-triazol-1-yl)heptyl)-1H-1,2,3-triazol-4-yl)pyridine]",–,–,143 to 144
"O=S(=O)(NCCCCCCCCn1cc(-c2cccnc2)nn1)c1ccccc1Br [2-bromo-N-(8-(4-(pyridin-3-yl)-1H-1,2,3-triazol-1-yl)octyl)benzene sulfonamide]",< 300,–,–

Structure (SMILES),"IC50 (SH-SY5Y, HeLa) [nM]",inhibition of the enzymatic activity of NAMPT (NAMPT),melting point [°C]
"c1ccc(-c2ccccc2CNCCc2ccc(Cn3cc(-c4cccnc4)nn3)cc2)cc1 [N-([1,1′-biphenyl]-ylmethyl)-2-(4-((4-(pyridin-3-yl)-1H-1,2,3-triazol-1-yl)methy)phenyl)ethanamine]",< 300,–,–
"c1ccc(OCCCCCCCCn2cc(-c3cccnc3)nn2)cc1 [3-(1-(8-phenoxyoctyl)-1H-1,2,3-triazol-4-yl)pyridine]",–,–,102 to 103
"c1ccc(-c2ccccc2-c2cn(CCCCCCCCn3cc(-c4cccnc4)nn3)nn2)cc1 [3-(1-(8-(4-([1,1′-byphenyl]-2-yl)-1H-1,2,3-triazol-1-yl)octyl)-1H-1,2,3-triazol-4-yl)pyridine]",< 300,–,136 to 140
"c1ccc(-c2ccccc2CNCCCCCCCn2cc(-c3cccnc3)nn2)cc1 [N-([1,1′-biphenyl]-2-ylmethyl)-7-(4-(pyridin-3-yl)-1H-1,2,3-triazol-1-yl)heptan-1-amine]",< 300,–,86 to 91
"O=S(=O)(NCCCCCCn1cc(-c2cccnc2)nn1)c1ccccc1Br [2-bromo-N-(6-(4-(pyridin-3-yl)-1H-1,2,3-triazol-1-yl)hexyl)benzene sulfonamide]",< 300,–,–
"O=C(NCCCCCCCn1cc(-c2cccnc2)nn1)c1ccccc1I [2-iodo-N-(7-(4-(pyridin-3-yl)-1H-1,2,3-triazol-1-yl)heptyl)benzamide]",< 300,–,106 to 108
"c1ccc(-c2ccccc2OCc2ccc(CCn3cc(-c4cccnc4)nn3)cc2)cc1 [3-(1-(4-(([1,1′-biphenyl]-2-yloxy)methyl)phenethyl)-1H-1,2,3-triazol-4-yl)pyridine]",< 300,–,136 to 137
"O=C(Nc1ccccc1-c1ccccc1)OCCCCCCCCn1cc(-c2cccnc2)nn1 [8-(4-(pyridin-3-yl)-1H-1,2,3-triazol-1-yl)octyl[1,1′-biphenyl]-2-ylcarbamate]",< 300,–,81 to 85
"O=C(NCCCCCCCn1cc(-c2cccnc2)nn1)c1ccccc1 [N-(7-(4-(pyridin-3-yl)-1H-1,2,3-triazol-1-yl)heptyl)benzamide]",–,–,123 to 124
"O=C(O)c1cccc(-c2ccccc2OCCCCCCn2cc(-c3cccnc3)nn2)c1 [2′-((6-(4-(pyridin-3-yl)-1H-1,2,3-triazol-1-yl)hexyl)oxy)-[1,1′-biphenyl]-3-carboxylic acid]",< 300,–,–
"Cc1ccccc1-c1ccccc1OCCCCCCn1cc(-c2cccnc2)nn1 [3-(1-(6-((2′-methyl-[1,1′-biphenyl]-2-yl)oxy)hexyl)-1H-1,2,3-triazol-4-yl)pyridine]",< 300,–,–
"O=C(NCCCc1ccc(-n2cc(-c3cccnc3)nn2)cc1)c1ccccc1-c1ccccc1 [N-(3-(4-(4-(pyridin-3-yl)-1H-1,2,3-triazol-1-yl)phenyl)propyl)-[1,1′-biphenyl]-2-carboxamide]",< 300,–,202 to 203
"c1ccc(-c2ccccc2-c2cn(CCCCCCn3cc(-c4cccnc4)nn3)nn2)cc1 [3-(1-(6-(4-([1,1′-byphenyl]-2-yl)-1H-1,2,3-triazol-1-yl)hexyl)-1H-1,2,3-triazol-4-yl)pyridine]",< 300,–,139 to 140
"O=S(=O)(NCCc1ccc(Cn2cc(-c3cccnc3)nn2)cc1)c1ccccc1-c1ccccc1 [N-(4-((4-(pyridin-3-yl)-1H-1,2,3-triazol-1-yl)methyl)phenethyl)-[1,1′-biphenyl]-sulfonamide]",< 300,–,–
"c1ccc(-c2ccccc2-c2cn(CCc3ccc(Cn4cc(-c5cccnc5)nn4)cc3)nn2)cc1 [3-(1-(4-(2-(4-([1,1′-biphenyl]-2-yl)-1H-1,2,3-triazol-1-yl)ethyl)benzyl)-1H-1,2,3-triazol-4-yl)pyridine]",< 300,–,139 to 141
"O=C(NCc1ccc(CCn2cc(-c3cccnc3)nn2)cc1)c1ccccc1-c1ccccc1 [N-(4-(2-(4-(pyridin-3-yl)-1H-1,2,3-triazol-1-yl)ethyl)benzyl)-[1,1′-biphenyl]-2-carboxamide]",< 300,–,204 to 205
"c1ccc(-c2cn(CCCCCCn3cc(-c4cccnc4)nn3)nn2)cc1 [3-(1-(6-(4-phenyl-1H-1,2,3-triazol-1-yl)hexyl)-1H-1,2,3-triazol-4-yl)pyridine]",–,–,172 to 173
